Assay results as given in patent publication US11964973B2 (priority 2019, dated 2024).
Like-named read-outs stand apart in the source and are kept apart here.

Key:
human DGKζ = human DGKζ (Homo sapiens (Human), UniProt Q13574); assay: biochemical; assay type: biochemical; settings: Table A; liposome (LIPGLO) assay; read-out: DGKζ
Human DGKα(9-727) = Human DGKα(9-727) (Homo sapiens (Human), UniProt P23743); assay: biochemical; settings: Table A, liposome (LIPGLO) assay
[1] = system: human venous whole blood, CD8 positive population (pERK); assay: DGK human whole blood pERK assay; assay type: cell-based
Outline: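 Heparinized whole blood from healthy donors preincubated with compound 1 hour at 37° C. Stimulation used anti-CD3 at 1 μg/mL final plus cross-linking goat anti-mouse IgG for 15 minutes. Flow cytometry scored percentage pERK-positive cells among CD8-positive cells.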

naïve human CD8 T cells = assay: CellTiter-Glo CD8 T cell proliferation assay; assay type: cell-based; settings: Homo sapiens, read-out: CD8 GLO Normalized EC50
Procedure: Assay 4: CellTiter-Glo CD8 T Cell Proliferation Assay
Frozen naïve human CD8 T cells were thawed in RPMI+10% FBS, incubated for 2 h in 37° C., and counted. The 384-well tissue culture plate was coated overnight at 4° C. with 20 μl anti-human CD3 at 0.1 μg/mL in plain RPMI, which was removed off the plate before 20 k/40 μL CD8 T cells with 0.5 μg/ml soluble anti-human CD28 were added to each well. The compounds were echoed to the cell plate immediately after the cells were plated. After 72 h incubation at 37° C. incubator, 10 μL CellTiter-glo reagent (Promega catalog number G7570) was added to each well. The plate was vigorously shaken for 5 mins, incubated at room temperature for another 15 mins and read on Envision for CD8 T cell proliferation. In analysis, 0.1 μg/mL anti-CD3 and 0.5 μg/mL anti-CD28 stimulated CD8 T cell signal was background.

DGKα = DGKα (Homo sapiens (Human), UniProt P23743); assay: biochemical; assay type: biochemical; settings: Table A; liposome (LIPGLO) assay; read-out: DGKα
Chain of DGKα (P23743 whole entry, looked up): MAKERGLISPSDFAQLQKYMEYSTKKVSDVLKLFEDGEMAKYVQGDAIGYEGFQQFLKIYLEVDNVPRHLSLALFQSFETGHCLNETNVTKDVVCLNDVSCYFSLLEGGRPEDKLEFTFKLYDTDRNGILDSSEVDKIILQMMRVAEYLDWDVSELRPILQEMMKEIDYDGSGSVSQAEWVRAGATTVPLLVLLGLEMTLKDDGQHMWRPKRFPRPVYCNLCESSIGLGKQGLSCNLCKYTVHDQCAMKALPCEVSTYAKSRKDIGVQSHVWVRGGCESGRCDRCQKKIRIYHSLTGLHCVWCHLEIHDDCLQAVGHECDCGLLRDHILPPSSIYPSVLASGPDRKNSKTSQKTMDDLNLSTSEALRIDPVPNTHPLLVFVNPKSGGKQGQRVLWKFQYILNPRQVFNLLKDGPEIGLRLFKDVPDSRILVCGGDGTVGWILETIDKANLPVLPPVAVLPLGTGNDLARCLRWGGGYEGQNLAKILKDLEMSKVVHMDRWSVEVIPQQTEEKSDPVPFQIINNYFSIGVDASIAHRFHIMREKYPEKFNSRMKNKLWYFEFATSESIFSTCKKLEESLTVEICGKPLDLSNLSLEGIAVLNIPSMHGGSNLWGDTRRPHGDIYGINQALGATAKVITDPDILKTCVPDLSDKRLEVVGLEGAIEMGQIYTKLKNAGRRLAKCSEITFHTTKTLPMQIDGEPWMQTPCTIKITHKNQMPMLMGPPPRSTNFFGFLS

[2] = system: Human venous whole blood (IFN-γ); assay: Human whole blood IFN-γ assay; assay type: cell-based
Procedure: Assay 10: Human Whole Blood IFN-γ Assay
Human venous whole blood (22.5 μL per well), obtained from healthy donors, was pre-treated with compounds for one hour at 37° C. in a humidified 95% air/5% CO2 incubator. The blood was stimulated with 2.5 μL anti-human CD3 and anti-CD28 mAb at a final concentration of 1 μg/mL each for 24 hours at 37° C. IFN-γ in the supernatants was measured using AlphLISA kit (Cat #AL217).

[3] = human whole blood pERK, read-out: DGK HWB
[4] = Homo sapiens, CD8 positive, human whole blood pERK, read-out: DGK HWB
[5] = Homo sapiens, human whole blood IFN-γ, read-out: INFg Whole Blood
[6] = read-out: INFg Whole Blood, human whole blood IFN-γ
[7] = Homo sapiens, read-out: INFg Whole Blood, human whole blood IFN-γ
[8] = read-out: DGK HWB, human whole blood pERK
[9] = Homo sapiens, CD8 positive, human whole blood, CD8 positive population, anti-CD3 stimulation, top concentration 20 μM, read-out: DGK HWB (human whole blood pERK)

Chain of human DGKζ (Q13574 whole entry, looked up): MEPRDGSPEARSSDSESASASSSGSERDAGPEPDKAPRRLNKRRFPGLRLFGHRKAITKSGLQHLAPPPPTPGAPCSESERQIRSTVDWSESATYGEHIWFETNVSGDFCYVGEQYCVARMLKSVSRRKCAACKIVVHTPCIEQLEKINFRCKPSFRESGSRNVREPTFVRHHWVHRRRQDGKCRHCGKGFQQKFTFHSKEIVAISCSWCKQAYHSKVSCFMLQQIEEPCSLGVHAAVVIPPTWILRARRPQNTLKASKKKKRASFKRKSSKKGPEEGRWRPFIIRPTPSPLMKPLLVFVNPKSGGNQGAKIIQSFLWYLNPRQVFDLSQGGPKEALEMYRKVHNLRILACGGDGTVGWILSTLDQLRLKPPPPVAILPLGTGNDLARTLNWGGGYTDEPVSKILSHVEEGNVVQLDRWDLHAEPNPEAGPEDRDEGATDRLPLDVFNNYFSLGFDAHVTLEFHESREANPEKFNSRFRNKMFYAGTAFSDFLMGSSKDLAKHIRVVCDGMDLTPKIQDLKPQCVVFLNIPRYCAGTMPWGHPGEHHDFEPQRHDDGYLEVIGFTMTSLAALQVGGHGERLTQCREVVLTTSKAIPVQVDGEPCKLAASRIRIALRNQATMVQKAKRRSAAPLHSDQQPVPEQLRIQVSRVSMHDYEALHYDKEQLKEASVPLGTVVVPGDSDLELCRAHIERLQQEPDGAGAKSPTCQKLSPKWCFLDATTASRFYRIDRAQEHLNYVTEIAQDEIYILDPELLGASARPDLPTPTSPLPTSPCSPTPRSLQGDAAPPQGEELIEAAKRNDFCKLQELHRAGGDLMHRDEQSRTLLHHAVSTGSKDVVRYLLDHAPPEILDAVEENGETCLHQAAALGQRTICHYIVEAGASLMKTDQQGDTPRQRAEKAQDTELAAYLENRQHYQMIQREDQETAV
Chain of Human DGKα(9-727) (P23743 whole entry, looked up): as the sequence (P23743 whole entry, looked up) above

Row | Compound | IC50 (human DGKζ) | IC50 (Human DGKα(9-727); read-out: DGKα) | further results
1 | CC1CN(c2c(C#N)c(=O)n(C)c3ccc(C#N)nc23)CCC1N(C)Cc1ccc(F)cc1 (single isomer, unassigned) [Example 323, 8-(4-((4-Fluorobenzyl)(methyl)amino)-3-methylpiperidin-1-yl)-5-methyl-6-oxo-5,6-dihydro-1,5-naphthyridine-2,7-dicarbonitrile] | 18 µM | 3.5 µM | EC50 [1, 3]: 12 µM
2 | COc1ccc(C(F)(F)F)cc1OC1CCN(c2c([N+](=O)[O-])c(=O)n(C)c3ccc(F)cc23)CC1 [Example 8, 6-fluoro-4-(4-(2-methoxy-5-(trifluoromethyl)phenoxy)piperidin-1-yl)-1-methyl-3-nitroquinolin-2(1H)-one] |  |  | EC50 (naïve human CD8 T cells): 0.32 µM
3 | CO[C@@H]1CN(c2cc(=O)n(C)c3ccc(C#N)nc23)CC[C@H]1Oc1cccc(C(F)(F)F)c1 (single isomer, unassigned) [Example 261, (±)-trans-8-(3-methoxy-4-(3-(trifluoromethyl)phenoxy)piperidin-1-yl)-5-methyl-6-oxo-5,6-dihydro-1,5-naphthyridine-2-carbonitrile] | 1.4 µM | 0.2 µM | EC50 [1, 4]: 1.5 µM
4 | CC1CN(c2c(C#N)c(=O)n(C)c3ccc(C#N)nc23)CCC1N(C)Cc1ccc(F)cc1 (single isomer, unassigned) [Example 322, 8-(4-((4-Fluorobenzyl)(methyl)amino)-3-methylpiperidin-1-yl)-5-methyl-6-oxo-5,6-dihydro-1,5-naphthyridine-2,7-dicarbonitrile] | 78 µM | 6.8 µM | EC50 [1, 4]: 20 µM
5 | CC1CN(c2cc(=O)n(C)c3ccc(C#N)nc23)CCC1N(C)C(=O)c1ccc(F)cc1 (single isomer, unassigned) [Example 286, N-(1-(6-Cyano-1-methyl-2-oxo-1,2-dihydro-1,5-naphthyridin-4-yl)-3-methylpiperidin-4-yl)-4-fluoro-N-methylbenzamide] | 9.2 µM | 5.2 µM | EC50 [1, 3]: 8.7 µM
6 | CCO[C@H]1CN(c2cc(=O)n(C)c3ccc(C#N)nc23)CC[C@H]1Oc1cccc(C(F)(F)F)c1 (single isomer, unassigned) [Example 370, cis-8-(3-Ethoxy-4-(3-(trifluoromethyl)phenoxy)piperidin-1-yl)-5-methyl-6-oxo-5,6-dihydro-1,5-naphthyridine-2-carbonitrile] | 5.6 µM | 5.1 µM | EC50 [1, 4]: 6.7 µM
7 | CCC(C)(C)c1ccc(O[C@@H]2CCN(c3c(C#N)c(=O)n(C)c4ccc(C#N)nc34)C[C@H]2C)cc1 (single isomer, unassigned) [Example 231, 5-methyl-8-(trans-3-methyl-4-(4-(tert-pentyl)phenoxy)piperidin-1-yl)-6-oxo-5,6-dihydro-1,5-naphthyridine-2,7-dicarbonitrile (rel)] | 83 µM | 1.6 µM | IC50 (DGKα): 0.49 µM; EC50 [2, 5]: 0.51 µM; EC50 [1, 4]: 0.4 µM
8 | Cn1c(=O)c([N+](=O)[O-])c(N2CCC(Oc3cccc(C#N)c3)CC2)c2cc(F)ccc21 [Example 6, 3-((1-(6-fluoro-1-methyl-3-nitro-2-oxo-1,2-dihydroquinolin-4-yl)piperidin-4-yl)oxy)benzonitrile] |  |  | EC50 (naïve human CD8 T cells): 10 µM
9 | CC1CN(c2cc(=O)n(C)c3ccc(C#N)nc23)CCC1N(C)C(=O)c1ccc(F)cc1 (single isomer, unassigned) [Example 284, N-(1-(6-Cyano-1-methyl-2-oxo-1,2-dihydro-1,5-naphthyridin-4-yl)-3-methylpiperidin-4-yl)-4-fluoro-N-methylbenzamide] | 120 µM | 23 µM | EC50 [1, 3]: 20 µM
10 | CC[C@@H]1CN(c2cc(=O)n(C)c3ccc(C#N)nc23)CC[C@H]1Oc1cccc(C(C)(C)C)c1 (single isomer, unassigned) [Example 197] | 0.25 µM | 0.0054 µM | IC50 (DGKα): 0.011 µM; EC50 [2, 6]: 0.57 µM; EC50 ([1]; Homo sapiens, CD8 positive, read-out: DGK HWB, human whole blood pERK): 0.6 µM
11 | CC(C)Oc1ccc(OC2C[C@H](C)N(c3nc(=O)n(C)c4ccc(C#N)nc34)C[C@@H]2C)nc1 (mixture of isomers) [Example 246, (±)-Cis-(-4-((5-isopropoxypyridin-2-yl)oxy)-2,5-dimethylpiperidin-1-yl)-1-methyl-2-oxo-1,2-dihydropyrido[3,2-d]pyrimidine-6-carbonitrile] | 0.87 µM | 0.069 µM | EC50 [2, 7]: 0.45 µM; EC50 [1, 8]: 0.83 µM
12 | CC(C)Oc1ccc(OC2C[C@@H](C)N(c3nc(=O)n(C)c4ccc(C#N)nc34)C[C@H]2C)nc1 (single isomer, unassigned) [Example 245, (±)-Cis-(-4-((5-isopropoxypyridin-2-yl)oxy)-2,5-dimethylpiperidin-1-yl)-1-methyl-2-oxo-1,2-dihydropyrido[3,2-d]pyrimidine-6-carbonitrile] | 0.05 µM | 0.43 µM | EC50 [2, 6]: 0.41 µM; EC50 [1, 8]: 0.8 µM
13 | CC1CN(c2c(C#N)c(=O)n(C)c3ccc(C#N)nc23)CCC1N(C)Cc1ccc(F)cc1 (single isomer, unassigned) [Example 324, 8-(4-((4-Fluorobenzyl)(methyl)amino)-3-methylpiperidin-1-yl)-5-methyl-6-oxo-5,6-dihydro-1,5-naphthyridine-2,7-dicarbonitrile] | 130 µM | 130 µM | EC50 [1, 3]: 20 µM
14 | CC(C)Oc1ccc(OC2C[C@@H](C)N(c3nc(=O)n(C)c4ccc(C#N)nc34)C[C@H]2C)nc1 (single isomer, unassigned) [Example 244, (±)-Cis-(-4-((5-isopropoxypyridin-2-yl)oxy)-2,5-dimethylpiperidin-1-yl)-1-methyl-2-oxo-1,2-dihydropyrido[3,2-d]pyrimidine-6-carbonitrile] | 0.92 µM | 0.32 µM | EC50 [2, 7]: 0.78 µM; EC50 [1, 8]: 3.1 µM
15 | CCO[C@H]1CN(c2cc(=O)n(C)c3ccc(C#N)nc23)CC[C@@H]1OCc1ccc(OC(C)C)cn1 [Example 383, 8-((3S,4S)-3-ethoxy-4-((5-isopropoxypyridin-2-yl)methoxy)piperidin-1-yl)-5-methyl-6-oxo-5,6-dihydro-1,5-naphthyridine-2-carbonitrile] |  |  | IC50 (Human DGKα(9-727); read-out: DGKα LIPGLO IC50): 6.1 µM; EC50 [1, 9]: 20 µM
16 | C[C@H]1CN(c2cc(=O)n(C)c3ccc(C#N)nc23)[C@@H](C)CC1N(C)c1ccc(C(F)(F)F)cc1 (single isomer, unassigned) [Example 318] |  | 130 µM | EC50 [1, 4]: 20 µM
17 | CO[C@H]1CN(c2cc(=O)n(C)c3ccc(C#N)nc23)CC[C@@H]1Oc1ccc(OC(C)C)cn1 (single isomer, unassigned) [Example 269, (±)-trans-8-(4-((5-isopropoxypyridin-2-yl)oxy)-3-methoxypiperidin-1-yl)-5-methyl-6-oxo-5,6-dihydro-1,5-naphthyridine-2-carbonitrile] | 1.5 µM | 0.047 µM | EC50 [1, 4]: 2.1 µM
18 | CCO[C@H]1CN(c2cc(=O)n(C)c3ccc(C#N)nc23)CC[C@@H]1OCc1ccc(OC(C)C)cn1 (single isomer, unassigned) [Example 384] |  |  | IC50 (Human DGKα(9-727); read-out: DGKα LIPGLO IC50): 0.82 µM; EC50 [1, 9]: 4 µM
19 | Cn1c(=O)nc(N2CC[C@@H](Oc3cccc(C(F)(F)F)c3)[C@H](O)C2)c2nc(Cl)ccc21 (racemic) [Example 271, (+/−)-trans-6-chloro-4-(3-hydroxy-4-(3-(trifluoromethyl)phenoxy)piperidin-1-yl)-1-methylpyrido[3,2-d]pyrimidin-2(1H)-one] | 28 µM | 10 µM | EC50 [2, 5]: 20 µM
20 | CC1CN(c2cc(=O)n(C)c3ccc(C#N)nc23)CCC1N(C)C(=O)c1ccc(F)cc1 (single isomer, unassigned) [Example 285, N-(1-(6-Cyano-1-methyl-2-oxo-1,2-dihydro-1,5-naphthyridin-4-yl)-3-methylpiperidin-4-yl)-4-fluoro-N-methylbenzamide] | 130 µM | 30 µM | EC50 [1, 3]: 20 µM
21 | CC1CN(c2c(C#N)c(=O)n(C)c3ccc(C#N)nc23)CCC1N(C)Cc1ccc(F)cc1 (single isomer, unassigned) [Example 325, 8-(4-((4-Fluorobenzyl)(methyl)amino)-3-methylpiperidin-1-yl)-5-methyl-6-oxo-5,6-dihydro-1,5-naphthyridine-2,7-dicarbonitrile] | 50 µM | 49 µM | EC50 [1, 3]: 20 µM
